Test [1] relates to mice. Briefly: formalin paw test. The format is in vivo, mouse. Here is the method: AAK1 homozygous (−/−) and their wild-type (+/+) littermates were tested using the formalin paw test in order to assess their acute and tonic nociceptive responses. For these tests, Automatic Nociception Analyzers (purchased from the Ozaki lab at University of California, San Diego) were used. A metal band was placed around the left hind paw of each mouse 30 minutes prior to testing. After the 30-minute acclimation period, 20 μl of 5% formalin is subcutaneously injected in the dorsal surface of the left hind paw. Mice were individually housed in cylindrical chambers for 45 minutes. Fresh 5% formalin solution was prepared by diluting formaldehyde (Formalde-fresh 20%, Fisher Scientific, Fair Lawn, N.J.) with distilled water. Investigatory compounds were administered 30 minutes prior to formalin injection.
A computer recorded flinches per minute, total flinches for phase I (acute phase=first 8 minutes), and total flinches for phase II (tonic phase=time between minutes 20-40) through an electromagnetic field. See Yaksh T L, Ozaki G, McCumber D, Rathbun M, Svensson C, Malkmus S, Yaksh M C. An automated flinch detecting system for use in the formalin nociceptive bioassay. J Appl Physiol., 2001; 90:2386-402.
The same test was used to confirm that the administration of an AAK1 inhibitor can also affect pain response.
A compound of the disclosure was tested in this assay at different doses. Gabapentin and pregabalin were used as positive controls. Results are shown below in Table 2, wherein the effect of gabapentin at 200 mg/kg is considered a 100% response, the % response for the other compounds is relative to the 200 mg/kg dose of gabapentin, “sc” means subcutaneous administration.

The subject of test [2] is PC12 cells. Particulars: Kuai et al. 2011; cited from earlier work.
The mark [3] stands for this setting: 50 mg/kg sc, relative to gabapentin 200 mg/kg = 100% response.

SMILES strings stand for the structures.

For `CC(C)C[C@@H](N)COc1ccc2c(c1)OCc1cnccc1-2` [Compound 5, (R)-1-(5H-chromeno[3,4-c]pyridin-8-yloxy)-4-methylpentan-2-amine], the Response was determined as 45% in test [1] (10 mg/kg sc, relative to gabapentin 200 mg/kg = 100% response) and 88% in test [1] (30 mg/kg sc, relative to gabapentin 200 mg/kg = 100% response).

On to `COC(=O)[C@@]1(O)C[C@H]2O[C@]1(C)n1c3ccccc3c3c4c(c5c6ccccc6n2c5c31)C(=O)NC4` [Example K252a, K252a], for which the “effect on Neuregulin-1 induced neurite outgrowth” value in test [2] is recorded as “potentiation of Neuregulin-1 induced neurite outgrowth”.

With `NCC1(CC(=O)O)CCCCC1` [Gabapentin], the Response in test [1] (setting [3]) was 60%; in test [1] (200 mg/kg sc, considered a 100% response) it was 100%.

With `CC(C)C[C@H](CN)CC(=O)O` [Pregabalin], the Response in test [1] (setting [3]) worked out at 90%.

The values above are taken from patent publication US20160222021A1, “ARYL ETHER-BASE KINASE INHIBITORS” (BRISTOL-MYERS SQUIBB COMPANY, priority 2013, published 2016).
